{
  "source": "patent US20020022586A1",
  "about": "“Method for treating a patient with neoplasia by treatment with a pyrimidine analog” (priority 1998, published 2002)",
  "key": {"HT-29 cells [1]": {"system": "HT-29 cells", "assay": "HT-29 tumor cell growth inhibition, SRB assay", "type": "cell-based, human", "set-up": "Growth Inhibition: key to the marks not given beside the values"}, "[2]": {"system": "premalignant lesions in mouse mammary gland organ culture", "assay": "Mammary gland organ culture model; also: key: −: Not active; +: Slightly active; ++: Moderately active; +++: Strongly active; ++++: Highly active", "type": "cell-based", "details": "activity profile", "experimental": "For example, female BALB/c mice can be treated with a combination of estradiol and progesterone daily, in order to prime the glands to be responsive to hormones in vitro. The animals are sacrificed and thoracic mammary glands are excised aseptically and incubated for ten days in growth media supplemented with insulin, prolactin, hydrocortisone, and aldosterone. DMBA (7,12-dimethylbenz(a)anthracene) is added to medium to induce the formation of premalignant lesions. Fully developed glands are then deprived of prolactin, hydrocortisone, and aldosterone, resulting in the regression of the glands but not the premalignant lesions.\nThe test compound is dissolved in DMSO and added to the culture media for the duration of the culture period. At the end of the culture period, the glands are fixed in 10% formalin, stained with alum carmine, and mounted on glass slides. The extent of the area occupied by the mammary lesions can be quantitated by projecting an image of the gland onto a digitation pad. The area covered by the gland is traced on the pad and considered as 100% of the area. The space covered by each of the unregressed structures is also outlined on the digitization pad and quantitated by the computer.\nThe incidence of forming mammary lesions is the ratio of the glands with mammary lesions to […]. The incidence of mammary lesions in test compound treated glands is compared with that of the untreated glands.\nMammary gland organ culture experiments were performed as previously described (Mehta and Moon, Cancer Research, 46: 5832-5835, 1986). […] The data support the hypothesis that cyclooxygenase inhibition is not necessary for the anti-neoplastic properties of desired compounds."}, "HT-29 cells [3]": {"system": "HT-29 cells", "assay": "Apoptosis by DNA fragmentation assay in HT-29 cells", "type": "cell-based, human", "set-up": "Apoptosis: key to the marks not given beside the values"}, "cGMP-PDE [4]": {"system": "cGMP-PDE", "assay": "cGMP-PDE inhibition assay, enzyme from HT-29 tumor cells", "type": "biochemical, human", "set-up": "PDE Inhibition: key to the marks not given beside the values", "details": "activity profile"}, "cGMP-PDE [5]": {"system": "T1, cGMP-PDE", "T1 construct": "other: 10 μM; other: 100 μM; other: enzyme from HT-29 cells; other: 20 μM", "assay": "cGMP-PDE inhibition assay, enzyme from HT-29 tumor cells", "type": "biochemical, human", "set-up": "PDE Inhibition: key to the marks not given beside the values"}, "PDE4": {"system": "PDE4", "assay": "PDE4 inhibition assay, enzyme from HT-29 tumor cells", "type": "biochemical, human", "details": "enzyme from HT-29 cells", "experimental": "Cyclic GMP labeled with tritium (^3H-cGMP) is used as the substrate for the PDE enzymes. (Thompson, W. J., Teraski, W. L., Epstein, P. M., Strada, S. J., Advances in Cyclic Nucleotide Research, 10:69-92, 1979, which is incorporated herein by reference).\nIn brief, a solution of defined substrate ^3H-cGMP specific activity is mixed with the drug to be tested. The mixture is incubated with isolated PDE activity (either a single PDE or a mixture of PDE activities). The degree of phosphodiesterase inhibition is determined by calculating the amount of radioactivity released in drug-treated reactions and comparing those against a control sample (a reaction mixture lacking the tested compound but with the drug solvent).\nReference compounds and test compounds were analyzed for their cGMP-PDE inhibitory activity in accordance with the protocol for the assay described supra. […] Both compounds show selectivity for the cGMP-PDE isoenzyme forms over PDE4 isoforms."}, "COX": {"system": "COX", "assay": "COX inhibition", "type": "biochemical"}},
  "data": [
    {"smiles": "COc1cc(/C=C2/C(C)=C(CC(=O)O)c3cc(F)ccc32)cc(OC)c1OC", "note": "[Compound B, (Z)-5-Fluoro-2-methyl-1-(3,4,5-trimethoxybenzylidene)-3-acetic acid]", "values": [
      {"measurement": "inhibition at 100 µM", "setting": "HT-29 cells [1]; Homo sapiens, HT-29, 100 μM single dose, read-out: Growth inhibitory activity, % Inhibition at 100 μM", "result": 77, "unit": "%"},
      {"measurement": "Growth Inhibition", "setting": "HT-29 cells [1]; activity profile", "result": "+++"},
      {"measurement": "Mammary Gland Organ Culture", "setting": "[2]", "result": "++"},
      {"measurement": "fold induction at 100 µM", "setting": "HT-29 cells [3]; Homo sapiens, HT-29, 100 μM, read-out: Apoptosis inducing activity, Fold induction at 100 μM", "result": "> 2"},
      {"measurement": "EC50", "setting": "HT-29 cells [3]; Homo sapiens, HT-29, 48 hours, DNA fragmentation, read-out: EC50 for apoptosis induction", "result": "~175", "unit": "µM"},
      {"measurement": "Apoptosis", "setting": "HT-29 cells [3]; activity profile", "result": "+++"},
      {"measurement": "PDE Inhibition", "setting": "cGMP-PDE [4]", "result": "+++"},
      {"measurement": "cGMP PDE % Inhibition at 100 μM", "setting": "cGMP-PDE [5]; 100 μM", "result": "<25", "unit": "%"},
      {"measurement": "IC50", "setting": "cGMP-PDE [5]; enzyme from HT-29 cells", "result": 18, "unit": "µM"},
      {"measurement": "IC50", "setting": "PDE4", "result": 58, "unit": "µM"},
      {"measurement": "COX Inhibition", "setting": "COX; 100 μM", "result": "did not inhibit COX"},
      {"measurement": "COX Inhibition", "setting": "COX; activity profile", "result": "−"}
    ]}
  ]
}
